The structures appear in SMILES notation. Like-named read-outs stand apart in the source and are kept apart here. Where only a bound is given, the exact number is not on record here.

For one assay, the system named is HIV-1 (strain IIIB). The assay is described as follows: MT4 cell assay: antiviral HIV activity (HIV-induced cytopathic effect). Type of assay: cell-based. The conditions noted are these: Human immunodeficiency virus 1, IIIB, control and standard, propidium iodide readout, tested 0.01 to 1 μM in every assay, read-out: expected range of IC50 values. The protocol: Antiviral HIV activity and compound-induced cytotoxicity were measured in parallel by means of a propidium iodide based procedure in the human T-cell lymphotropic virus transformed cell line MT4. Aliquots of the test compounds were serially diluted in medium (RPMI 1640, 10% fetal calf serum (FCS), and gentamycin) in 96-well plates (Costar 3598) using a Cetus Pro/Pette. Exponentially growing MT4 cells were harvested and centrifuged at 1000 rpm for 10 min in a Jouan centrifuge (model CR 4 12). Cell pellets were resuspended in fresh medium (RPMI 1640, 20% FCS, 20% IL-2, and gentamycin) to a density of 5×10^5 cells/ml. Cell aliquots were infected by the addition of HIV-1 (strain IIIB) diluted to give a viral multiplicity of infection of 100×TCID50. […]
For propidium iodide readout, 27 μl of 5% Nonidet-40 was added to each well of the incubation plate. […] The plates were analyzed in an automated assay instrument (Screen Machine, Idexx Laboratories). […]
For MTS readout, 20 μl CellTiter 96 AQ One Solution reagent (Promega #G3582) was added to each well. At 75 minutes following the addition of MTS reagent, absorbance was read at […] using a Tecan Sunrise 96-well plate reader. […]
For each assay plate, the results (relative fluorescence units, rfU, or OD values) of wells containing uninfected cells or infected cells with no compound were averaged, respectively. […]

The target of another assay is Pseudotyped HIV vector. The assay is described as follows: Pseudotyped HIV vector expressing luciferase reporter assay. Type of assay: cell-based. The protocol:
Pseudotyped HIV Vector Expressing Luciferase Reporter Assay
Expression of luciferase reporter following viral integration was performed essentially as described in Jármy, G. et al., J. Medical Virology, 64:223-231, 2001.
(In general: In a reporter assay the amount or activity of a reporter protein is the signal.)

Broadly, the IC50 is the concentration needed to halve the response being measured. On to `Cc1cn([C@H]2C[C@H](N=[N+]=[N-])[C@@H](CO)O2)c(=O)[nH]c1=O` [3′-azido-3′-deoxythymidine], for which, in the assay on HIV-1 (strain IIIB), the IC50 was in the range of 0.04 to 0.12 µM.

For `C[C@H](O)CNC(=O)c1c(O)c2ncc(Cc3ccc(F)cc3)cc2n(CCN2CCCC2=O)c1=O` [Example 428, 7-(4-Fluorobenzyl)-4-hydroxy-N-[(2S)-2-hydroxypropyl]-2-oxo-1-[2-(2-oxopyrrolidin-1-yl)ethyl]-2-dihydro-1,5-naphthyridine-3-carboxamide], the IC50 on Pseudotyped HIV vector (luciferase reporter following viral integration, read-out: IC50) is under 0.01 µM.

In turn, `C[C@@H](O)CNC(=O)c1c(O)c2ncc(Cc3ccc(F)cc3)cc2n(CCN2CCCC2=O)c1=O` [Example 429, 7-(4-Fluorobenzyl)-4-hydroxy-N-[(2R)-2-hydroxypropyl]-2-oxo-1-[2-(2-oxopyrrolidin-1-yl)ethyl]-1,2-dihydro-1,5-naphthyridine-3-carboxamide] returned an IC50 in the assay on Pseudotyped HIV vector (Human immunodeficiency virus 1) of under 0.01 µM.

As for `CNC(=O)Cn1c(=O)c(C(=O)NCCOC)c(O)c2ncc(Cc3ccc(F)cc3)cc21` [Example 465, 7-[(4-Fluorophenyl)methyl]-4-hydroxy-1-[2-(methylamino)-2-oxoethyl]-N-[2-(methyloxy)ethyl]-2-oxo-1,2-dihydro-1,5-naphthyridine-3-carboxamide], in the assay on Pseudotyped HIV vector (Human immunodeficiency virus 1), the IC50 was under 0.01 µM.

For `COCCNC(=O)c1c(O)c2ncc(Cc3ccc(F)cc3)cc2n(Cc2nccn2C)c1=O` [Example 467, 7-[(4-Fluorophenyl)methyl]-4-hydroxy-1-[(1-methyl-1H-imidazol-2-yl)methyl]-N-[2-(methyloxy)ethyl]-2-oxo-1,2-dihydro-1,5-naphthyridine-3-carboxamide], the IC50 in the assay on Pseudotyped HIV vector (Human immunodeficiency virus 1) is under 0.01 µM.

Compound `Cn1c(=O)c(C(=O)NC[C@@H](O)CO)c(O)c2ncc(Cc3ccc(F)cc3)cc21` [Example 516, N-[(2R)-2,3-Dihydroxypropyl]-7-[(4-fluorophenyl)methyl]-4-hydroxy-1-methyl-2-oxo-1,2-dihydro-1,5-naphthyridine-3-carboxamide] yielded an IC50 with Pseudotyped HIV vector (Human immunodeficiency virus 1) of under 0.01 µM.

In the assay on Pseudotyped HIV vector (Human immunodeficiency virus 1), `CCN(CC)CCNC(=O)c1c(O)c2ncc(Cc3ccccc3)cc2[nH]c1=O` [N-[2-(Diethylamino)ethyl]-4-hydroxy-2-oxo-7-(phenylmethyl)-1,2-dihydro-1,5-naphthyridine-3-carboxamide, reference compound] had a 50% inhibitory concentration (IC50) of over 0.15 µM.
